Experimental data reported in patent US7781591B2, “Substituted 3-cyanopyridines as protein kinase inhibitors” (Wyeth LLC, priority 2006, dated 2010).

Target: T1, human PKCθ full length enzyme (Homo sapiens, UniProt Q04759)
T1 construct: human PKCθ full length enzyme (Panvera Cat# P2996); purchased Panvera P2996
Assay: PKCθ IMAP assay (fluorescence polarization)
Assay type: biochemical
Conditions: human PKCθ full length enzyme, IMAP; average value; read-out: IC50 PKCθ IMAP

T1 sequence (Q04759 whole entry): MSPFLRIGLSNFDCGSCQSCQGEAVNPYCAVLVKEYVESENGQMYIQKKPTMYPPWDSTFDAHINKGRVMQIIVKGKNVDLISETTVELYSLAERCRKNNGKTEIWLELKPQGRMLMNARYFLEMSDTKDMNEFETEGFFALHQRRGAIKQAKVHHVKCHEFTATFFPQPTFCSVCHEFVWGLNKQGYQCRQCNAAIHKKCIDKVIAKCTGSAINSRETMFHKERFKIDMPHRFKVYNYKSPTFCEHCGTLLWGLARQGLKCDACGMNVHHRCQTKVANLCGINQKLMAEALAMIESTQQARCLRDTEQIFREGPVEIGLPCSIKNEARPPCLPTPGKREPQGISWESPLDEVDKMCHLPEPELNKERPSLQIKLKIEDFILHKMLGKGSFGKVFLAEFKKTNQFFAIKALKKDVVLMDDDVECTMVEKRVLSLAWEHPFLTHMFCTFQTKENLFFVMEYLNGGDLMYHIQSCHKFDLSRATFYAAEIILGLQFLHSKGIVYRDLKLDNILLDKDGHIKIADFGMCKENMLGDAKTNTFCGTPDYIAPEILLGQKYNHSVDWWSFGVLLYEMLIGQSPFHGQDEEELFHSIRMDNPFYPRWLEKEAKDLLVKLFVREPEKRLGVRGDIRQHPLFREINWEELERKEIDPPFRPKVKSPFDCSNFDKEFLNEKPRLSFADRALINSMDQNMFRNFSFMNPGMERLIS

Row | IC50 [nM] | Compound
1 | 36 | Cc1c(Nc2c(C#N)cncc2-c2cnc(CN3CCN(C)CC3)n2C)ccc2[nH]ccc12 [Compound 539, 4-[(4-methyl-1H-indol-5-yl)amino]-5-{1-methyl-2-[(4-methylpiperazin-1-yl)methyl]-1H-imidazol-5-yl}nicotinonitrile]
2 | 100 | N#Cc1cncc(-c2cccs2)c1Nc1ccc2[nH]ccc2c1 [Compound 267, 4-(1H-indol-5-ylamino)-5-(2-thienyl)nicotinonitrile]
3 | 14300 | COc1ccc(-c2cncc(C#N)c2NCCCN2CCN(C)CC2)cc1OC [Compound 440, 5-(3,4-dimethoxyphenyl)-4-{[3-(4-methylpiperazin-1-yl)propyl]amino}nicotinonitrile]
4 | 16 | Cc1c(Nc2c(C#N)cncc2-c2ccc(CN3CCCC3)cc2)ccc2[nH]ccc12 [Compound 450, 4-[(4-methyl-1H-indol-5-yl)amino]-5-[4-(pyrrolidin-1-ylmethyl)phenyl]nicotinonitrile]
5 | 83 | Cc1c(Nc2c(C#N)cncc2-c2cnc(N3CCOCC3)nc2)ccc2[nH]ccc12 [Compound 511, 4-[(4-methyl-1H-indol-5-yl)amino]-5-(2-morpholin-4-ylpyrimidin-5-yl)nicotinonitrile]
6 | 4 | Cc1c(Nc2c(C#N)cncc2-c2ccc(OCCN3CCCC3)cc2)ccc2[nH]ccc12 [Compound 418, 4-[(4-methyl-1H-indol-5-yl)amino]-5-[4-(2-pyrrolidin-1-ylethoxy)phenyl]nicotinonitrile]
7 | 20 | N#Cc1cncc(-c2cc3ccccc3s2)c1Nc1cccc2[nH]ccc12 [Compound 322, 5-(1-benzothien-2-yl)-4-(1H-indol-4-ylamino)nicotinonitrile]
8 | 4 | Cc1c(Nc2c(C#N)cncc2-c2ccc(CN3CCN(C)CC3)o2)ccc2[nH]ccc12 [Compound 468, 4-[(4-methyl-1H-indol-5-yl)amino]-5-{5-[(4-methylpiperazin-1-yl)methyl]-2-furyl}nicotinonitrile]
9 | 1 | Cc1c(Nc2c(C#N)cncc2-c2cc3cc(C=O)ccc3s2)ccc2[nH]ccc12 [Compound 227, 5-(5-formyl-1-benzothien-2-yl)-4-[(4-methyl-1H-indol-5-yl)amino]nicotinonitrile]
10 | 60 | N#Cc1cncc(-c2ccc3c(c2)OCCO3)c1Nc1ccc2[nH]ccc2c1 [Compound 264, 5-(2,3-dihydro-1,4-benzodioxin-6-yl)-4-(1H-indol-5-ylamino)nicotinonitrile]
11 | 10 | COc1ccc(-c2cncc(C#N)c2Nc2cccc3[nH]ccc23)cc1OCCNCCCN1CCOCC1 [Compound 364, 4-(1H-indol-4-ylamino)-5-(4-methoxy-3-{2-[(3-morpholin-4-ylpropyl)amino]ethoxy}phenyl)nicotinonitrile]
12 | 250 | Cc1csc(-c2cccc(-c3cncc(C#N)c3Nc3ccc4[nH]ccc4c3)c2)c1 [Compound 139, 4-(1H-indol-5-ylamino)-5-[3-(4-methyl-2-thienyl)phenyl]nicotinonitrile]
13 | 36 | Cc1c(Nc2c(C#N)cncc2-c2cccc(N(C)C)c2)ccc2[nH]ccc12 [Compound 575, 5-[3-(dimethylamino)phenyl]-4-[(4-methyl-1H-indol-5-yl)amino]nicotinonitrile]
14 | 17 | Cc1c(Nc2c(C#N)cncc2-c2ccc(OCCN3CCN(c4ccccn4)CC3)cc2)ccc2[nH]ccc12 [Compound 430, 4-[(4-methyl-1H-indol-5-yl)amino]-5-{4-[2-(4-pyridin-2-ylpiperazin-1-yl)ethoxy]phenyl}nicotinonitrile]
15 | 46 | Cc1c(Nc2c(C#N)cncc2-c2cccc3[nH]ccc23)ccc2[nH]ccc12 [Compound 595, 5-(1H-indol-4-yl)-4-(4-methyl-1H-indol-5-ylamino)nicotinonitrile]
16 | 36 | COc1cccc(-c2cncc(C#N)c2Nc2ccc3[nH]ccc3c2C)c1 [Compound 558, 5-(3-methoxyphenyl)-4-[(4-methyl-1H-indol-5-yl)amino]nicotinonitrile]
17 | 30 | COc1ccc(-c2cncc(C#N)c2Nc2ccc3[nH]ccc3c2C)c(Cl)c1 [Compound 371, 5-(2-chloro-4-methoxyphenyl)-4-[(4-methyl-1H-indol-5-yl)amino]nicotinonitrile]
18 | 250 | N#Cc1cncc(-c2cccc(-c3ccc(C(=O)NCc4ccncc4)cc3)c2)c1Nc1ccc2[nH]ccc2c1 [Compound 214, 3′-[5-cyano-4-(1H-indol-5-ylamino)pyridin-3-yl]-N-(pyridin-4-ylmethyl)biphenyl-4-carboxamide]
19 | 110 | CC(=O)c1ccc(-c2cccc(-c3cncc(C#N)c3Nc3ccc4[nH]ccc4c3)c2)s1 [Compound 140, 5-[3-(5-acetyl-2-thienyl)phenyl]-4-(1H-indol-5-ylamino)nicotinonitrile]
20 | 11 | Cc1c(Nc2c(C#N)cncc2-c2ccc(CNCc3ccccc3)o2)ccc2[nH]ccc12 [Compound 408, 5-{5-[(benzylamino)methyl]-2-furyl}-4-[(4-methyl-1H-indol-5-yl)amino]nicotinonitrile]
21 | 3860 | N#Cc1cncc(-c2cncnc2)c1Nc1ccc2[nH]ccc2c1 [Compound 265, 4-(1H-indol-5-ylamino)-5-pyrimidin-5-ylnicotinonitrile]

Row | IC50 [nM] | Compound
22 | 9 | Cc1c(Nc2c(C#N)cncc2-c2ccc(OCCNCc3ccccn3)cc2)ccc2[nH]ccc12 [Compound 432, 4-[(4-methyl-1H-indol-5-yl)amino]-5-(4-{2-[(pyridin-2-ylmethyl)amino]ethoxy}phenyl)nicotinonitrile]
23 | 20 | N#Cc1cncc(-c2cccc(-c3cccs3)c2)c1Nc1cccc2[nH]ccc12 [Compound 147, 4-(1H-indol-4-ylamino)-5-[3-(2-thienyl)phenyl]nicotinonitrile]
24 | 30 | COCCOc1cccc(-c2cncc(C#N)c2Nc2cccc3[nH]ccc23)c1 [Compound 164, 4-(1H-indol-4-ylamino)-5-[3-(2-methoxyethoxy)phenyl]nicotinonitrile]
25 | 20 | CN1CCN(CCOc2cccc(-c3cncc(C#N)c3Nc3cccc4[nH]ccc34)c2)CC1 [Compound 168, 4-(1H-indol-4-ylamino)-5-{3-[2-(4-methylpiperazin-1-yl)ethoxy]phenyl}nicotinonitrile]
26 | 100 | COc1cc(Br)c(-c2cncc(C#N)c2Nc2ccc3[nH]ccc3c2C)cc1OC [Compound 247, 5-(2-bromo-4,5-dimethoxyphenyl)-4-[(4-methyl-1H-indol-5-yl)amino]nicotinonitrile]
27 | 70 | N#Cc1cncc(-c2ccc3c(c2)OCO3)c1Nc1ccc2[nH]ccc2c1 [Compound 260, 5-(1,3-benzodioxol-5-yl)-4-(1H-indol-5-ylamino)nicotinonitrile]
28 | 82 | COc1ccccc1-c1cncc(C#N)c1Nc1ccc2[nH]ccc2c1C [Compound 557, 5-(2-methoxyphenyl)-4-[(4-methyl-1H-indol-5-yl)amino]nicotinonitrile]
29 | 60 | CCCCNC(=O)c1ccc(-c2cccc(-c3cncc(C#N)c3Nc3cccc4[nH]ccc34)c2)cc1 [Compound 215, N-butyl-3′-[5-cyano-4-(1H-indol-4-ylamino)pyridin-3-yl]biphenyl-4-carboxamide]
30 | 58 | Cc1c(Nc2c(C#N)cncc2-c2cc3cc(CN4CCN(C(=O)OC(C)(C)C)CC4)ccc3o2)ccc2[nH]ccc12 [Compound 536, tert-butyl 4-[(2-{5-cyano-4-[(4-methyl-1H-indol-5-yl)amino]pyridin-3-yl}-1-benzofuran-5-yl)methyl]piperazine-1-carboxylate]
31 | 65 | COc1ccc(-c2cncc(C#N)c2Nc2ccc3[nH]c(C)cc3c2)cc1OC [Compound 110, 5-(3,4-dimethoxyphenyl)-4-[(2-methyl-1H-indol-5-yl)amino]nicotinonitrile]
32 | 5 | Cc1c(Nc2c(C#N)cncc2-c2cc3cc(CN4CCC(CO)CC4)ccc3o2)ccc2[nH]ccc12 [Compound 392, 5-(5-{[4-(hydroxymethyl)piperidin-1-yl]methyl}-1-benzofuran-2-yl)-4-[(4-methyl-1H-indol-5-yl)amino]nicotinonitrile]
33 | 2 | Cc1c(Nc2c(C#N)cncc2-c2cc3cc(CN4CCCCC4)ccc3s2)ccc2[nH]ccc12 [Compound 228, 4-[(4-methyl-1H-indol-5-yl)amino]-5-[5-(piperidin-1-ylmethyl)-1-benzothien-2-yl]nicotinonitrile]
34 | 140 | N#Cc1cncc(-c2cccc(-c3ccc(CN4CCCCC4)s3)c2)c1Nc1ccc2[nH]ccc2c1 [Compound 186, 4-(1H-indol-5-ylamino)-5-{3-[5-(piperidin-1-ylmethyl)-2-thienyl]phenyl}nicotinonitrile]
35 | 20 | COc1ccc(-c2cncc(C#N)c2Nc2cccc3[nH]ccc23)cc1 [Compound 323, 4-(1H-indol-4-ylamino)-5-(4-methoxyphenyl)nicotinonitrile]
36 | 60 | N#Cc1cncc(-c2cc3ccccc3[nH]2)c1Nc1cccc2[nH]ccc12 [Compound 325, 5-(1H-indol-2-yl)-4-(1H-indol-4-ylamino)nicotinonitrile]
37 | 6 | N#Cc1cncc(-c2cc3cc(C=O)ccc3s2)c1Nc1cccc2[nH]ccc12 [Compound 223, 5-(5-formyl-1-benzothien-2-yl)-4-(1H-indol-4-ylamino)nicotinonitrile]
38 | 21 | CNC(=O)Nc1ccc(-c2cncc(C#N)c2Nc2ccc3[nH]ccc3c2C)cc1 [Compound 567, 1-(4-{5-cyano-4-[(4-methyl-1H-indol-5-yl)amino]pyridin-3-yl}phenyl)-3-methylurea]
39 | 20 | CS(=O)(=O)Nc1ccc(-c2cncc(C#N)c2Nc2cccc3[nH]ccc23)cc1 [Compound 317, N-{4-[5-cyano-4-(1H-indol-4-ylamino)pyridin-3-yl]phenyl}methanesulfonamide]
40 | 310 | N#Cc1cncc(-c2ccccc2Br)c1Nc1ccc2[nH]ccc2c1 [Compound 115, 5-(2-bromophenyl)-4-(1H-indol-5-ylamino)nicotinonitrile]
41 | 3 | Cc1c(Nc2c(C#N)cncc2-c2ccc(OCCNC3CCN(C)CC3)cc2)ccc2[nH]ccc12 [Compound 420, 4-[(4-methyl-1H-indol-5-yl)amino]-5-(4-{2-[(1-methylpiperidin-4-yl)amino]ethoxy}phenyl)nicotinonitrile]
